According to US20240299353A1, “COMPOSITIONS AND METHODS FOR TREATING […] 5-MEO-DMT” (Alvarius Pharmaceuticals Ltd., priority 2021, published 2024):

Columns and labels:
[1] = system: GR; assay: Western blot of GR in hippocampus, chronic cocaine ± 5-MeO-DMT; type: in vivo, Male Wistar rats
Text: Male Wistar rats aged 7 weeks were acclimatized to the facility for 1 week prior to the beginning of the study. […] Animals were euthanized 23- or 119-hours following vehicle or 5-MeO-DMT administration.
Following euthanasia brain regions of interest were isolated. Briefly, the olfactory bulbs were removed before the brain was placed in a rat brain matrix (FIG. 2A). Sterile blades were inserted at positions 2 and 3 (FIG. 2B) to extract a coronal slice containing the Bregma+˜0.2-+˜2.2 coordinates (FIG. 2C). From this tissue slice a blunted 12 G needle was used to punch dissect the NAc and dorsal striatum (DS) (FIG. 2D-2E) identified using the rat brain atlas (Panxinos and Watson 2nd edition). The PFC, hippocampus (Hip) and amygdala (Amyg) were then blunt dissected (FIG. 3A-3D). All regions were frozen in liquid nitrogen and stored at −80° C. until processed.
These treatment groups were used for the molecular assessment of addiction-linked markers.
Determination of protein concentration—a bicinchoninic acid assay (BCA, ThermoFisher) was conducted to determine the total protein concentration in tissue lysates following manufacturer's instructions. […] For tissue lysates a 1:10 dilution was performed with cell lysis buffer to ensure absorbance values lay within the working range established by the standards. […] The plate was covered and incubated for 30 mins at 37° C. before absorbance was read at 562 nm on a plate reader (SpectraMax M3). The absorbance values were used to form a standard curve of known protein concentrations and protein concentration of samples were derived using the equation of the line. […]
SDS-PAGE and Western Blotting—Following equalisation of protein concentrations, 6× sample loading buffer (15% SDS, 15% […], 50% glycerol, 0.01% bromophenol blue, […]) was added to each sample using a dilution factor of 1:5 of the total volumes before boiling at 100° C. for 5 mins. […] The percentage of acrylamide in the resolving or stacking gel was determined by the molecular weight of the protein of interest. […]

[2] = system: hippocampal proteins; assay: Hippocampal LC-MS/MS proteomics, chronic cocaine with single psychedelic administration; type: in vivo, Male Wister rats
Procedure: Animals were then randomly allocated to one of five groups and received a single i.p. injection of one of vehicle, 5 mg/kg 5-Meo-DMT, 0.14 mg/kg LSD, 1 mg/kg psilocybin, or 1 mg/kg DOI. On day 15, animals were euthanised and the hippocampus blunt dissected, snap frozen in liquid nitrogen and stored at −80° C. until further processing.
Protein from hippocampal tissue was processed for liquid chromatography tandem Mass Spectrometry (LC-MS/MS). Samples were run on a Thermo Scientific Q Exactive Mass Spectrometer connected to a Dionex Ultimate 3000 (RSLCnano) chromatography system in the UCD Conway Institute Core Mass Spectrometry Facility. Peptide and protein identification of MS/MS spectra were searched against the rat UniProt database using carbamidomethylation (C) as a fixed modification and acetylation (protein N terminus) and oxidation (M) as variable modifications with a false discovery rate filtering of 0.01. MaxQuant was using to generate label-free quantitative (LFQ) ion intensities and the Perseus statistical software contained in the MaxQuant package was used to analyse LFQ ion intensity. Statistical significance (p<0.05, FC±20%) of mean LFQ intensity between treatment groups was determined by two sample t-test. […] Networks were visualised using the stringApp (version 1.6.0) plugin for the Cytoscape software platform (version 3.8.2).

| SMILES | GR expression ([1]; 24 h, cocaine, p=0.0434, no post hoc differences) | GR expression ([1]; 120 h, cocaine effect) | significantly regulated proteins in the hippocampus between saline and cocaine ([2]; cocaine 20 mg/kg i.p. daily for 14 days) | GR expression ([1]; 24 h and 120 h, 5-MeO-DMT) | differential expression of proteins in the control hippocampus ([2]; single i.p. dose (5-MeO-DMT 5 mg/kg, LSD 0.14 mg/kg, psilocybin 1 mg/kg, DOI 1 mg/kg) vs saline-saline, p<0.05, FC ±20%) | differential expression of proteins in the chronic cocaine hippocampus ([2]; single i.p. dose after 14 days cocaine 20 mg/kg (5-MeO-DMT 5, LSD 0.14, psilocybin 1, DOI 1 mg/kg) vs cocaine-saline) | reversal of chronic cocaine mediated proteomic changes in the hippocampus ([2]; single treatment (5-MeO-DMT 5, LSD 0.14, psilocybin 1, DOI 1 mg/kg i.p.)) |
| --- | --- | --- | --- | --- | --- | --- | --- |
| COC(=O)[C@H]1[C@@H](OC(=O)c2ccccc2)C[C@@H]2CC[C@H]1N2C.Cl [cocaine, cocaine hydrochloride, reference compound] | significantly affected GR expression | not detectable | 85 proteins |  |  |  |  |
| COc1ccc2[nH]cc(CCN(C)C)c2c1 [5-MeO-DMT, 5-methoxy-N,N-dimethyltryptamine] |  |  |  | no 5-Meo-associated regulation of GR | 64 proteins | 74 proteins | 77% |
